Results from publication PMC3961306, “Comparison of the Cancer Gene Targeting and Biochemical Selectivities of All Targeted Kinase Inhibitors Approved for Clinical Use” (PLoS ONE, 2014).
Read-outs that look alike come from different tables or passages of the source.

How the values were obtained:
Test in all cases: Kinase profiling in a biochemical assay panel (mobility shift assays and ELISA), %-inhibition at 1 μM; selectivity entropy
[1] = target: panel of more than 300 wild-type and mutant kinases (313 kinase panel) (Homo sapiens, UniProt P08069)
[2] = target: panel of more than 300 wild-type and mutant kinases (313 kinase panel) (Homo sapiens, UniProt P10721, V560G)
[3] = target: T1, panel of more than 300 wild-type and mutant kinases (313 kinase panel) (Homo sapiens, UniProt Q96BR1)
T1 sequence (Q96BR1 1-496): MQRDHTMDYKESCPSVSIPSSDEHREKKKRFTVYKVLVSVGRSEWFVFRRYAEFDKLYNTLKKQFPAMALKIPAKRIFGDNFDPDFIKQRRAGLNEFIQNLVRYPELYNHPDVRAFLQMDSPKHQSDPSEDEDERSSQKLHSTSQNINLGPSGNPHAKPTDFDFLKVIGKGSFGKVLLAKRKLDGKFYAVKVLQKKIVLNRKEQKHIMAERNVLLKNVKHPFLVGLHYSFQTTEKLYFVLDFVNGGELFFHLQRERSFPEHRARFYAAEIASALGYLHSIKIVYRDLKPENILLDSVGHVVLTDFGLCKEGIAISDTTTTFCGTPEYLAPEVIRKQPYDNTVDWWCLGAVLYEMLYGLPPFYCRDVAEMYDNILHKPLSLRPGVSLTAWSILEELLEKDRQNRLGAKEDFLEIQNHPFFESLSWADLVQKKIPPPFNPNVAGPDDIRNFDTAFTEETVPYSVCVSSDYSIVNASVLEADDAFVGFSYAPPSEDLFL

[4] = target: T2, panel of more than 300 wild-type and mutant kinases (313 kinase panel) (Homo sapiens, UniProt P43403)
T2 sequence (P43403 1-619): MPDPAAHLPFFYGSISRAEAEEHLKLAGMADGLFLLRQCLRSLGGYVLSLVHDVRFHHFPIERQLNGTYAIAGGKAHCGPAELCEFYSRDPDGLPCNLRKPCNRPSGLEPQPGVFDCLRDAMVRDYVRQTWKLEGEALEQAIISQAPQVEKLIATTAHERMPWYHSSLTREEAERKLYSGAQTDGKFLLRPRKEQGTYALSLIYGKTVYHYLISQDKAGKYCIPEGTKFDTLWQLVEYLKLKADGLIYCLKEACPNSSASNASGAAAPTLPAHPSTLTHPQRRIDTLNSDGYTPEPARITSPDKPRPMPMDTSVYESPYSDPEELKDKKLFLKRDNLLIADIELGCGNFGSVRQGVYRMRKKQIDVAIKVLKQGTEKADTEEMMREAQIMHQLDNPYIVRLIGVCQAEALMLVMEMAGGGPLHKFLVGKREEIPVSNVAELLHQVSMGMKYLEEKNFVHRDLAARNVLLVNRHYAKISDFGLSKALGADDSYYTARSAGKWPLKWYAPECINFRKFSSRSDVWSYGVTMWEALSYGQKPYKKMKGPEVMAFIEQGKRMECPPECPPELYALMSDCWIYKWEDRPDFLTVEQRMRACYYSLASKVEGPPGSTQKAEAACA

[5] = target: T3, panel of more than 300 wild-type and mutant kinases (313 kinase panel) (Homo sapiens, UniProt Q08881)
T3 sequence (Q08881 1-620): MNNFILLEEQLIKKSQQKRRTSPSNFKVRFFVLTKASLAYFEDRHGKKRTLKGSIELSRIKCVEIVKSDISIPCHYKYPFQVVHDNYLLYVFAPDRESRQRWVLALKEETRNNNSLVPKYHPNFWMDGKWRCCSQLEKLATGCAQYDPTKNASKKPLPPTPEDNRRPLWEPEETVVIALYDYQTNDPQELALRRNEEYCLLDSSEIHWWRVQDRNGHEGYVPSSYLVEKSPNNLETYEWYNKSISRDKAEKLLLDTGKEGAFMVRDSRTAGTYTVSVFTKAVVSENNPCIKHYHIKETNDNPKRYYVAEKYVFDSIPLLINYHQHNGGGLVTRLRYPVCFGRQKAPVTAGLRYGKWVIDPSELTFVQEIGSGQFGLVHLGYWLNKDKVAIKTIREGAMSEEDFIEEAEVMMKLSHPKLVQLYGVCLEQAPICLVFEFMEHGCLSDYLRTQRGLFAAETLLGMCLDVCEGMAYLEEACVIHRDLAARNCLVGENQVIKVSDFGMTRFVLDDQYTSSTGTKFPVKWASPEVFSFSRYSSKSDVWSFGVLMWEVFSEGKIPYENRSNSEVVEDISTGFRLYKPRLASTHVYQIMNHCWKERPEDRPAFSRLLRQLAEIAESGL

[6] = target: panel of more than 300 wild-type and mutant kinases (313 kinase panel) (Homo sapiens, UniProt P22607, K650E)
[7] = target: panel of more than 300 wild-type and mutant kinases (313 kinase panel) (Homo sapiens, UniProt Q13627)
[8] = kinase KIT(V560G), compound at 1 μM
[9] = kinase FGFR3(K650E), compound at 1 μM
[10] = kinase DYRK1A, compound at 1 μM

panel of more than 300 wild-type and mutant kinases (313 kinase panel) (Homo sapiens, UniProt P22607, K650E), sequence (P22607 23-806 K650E): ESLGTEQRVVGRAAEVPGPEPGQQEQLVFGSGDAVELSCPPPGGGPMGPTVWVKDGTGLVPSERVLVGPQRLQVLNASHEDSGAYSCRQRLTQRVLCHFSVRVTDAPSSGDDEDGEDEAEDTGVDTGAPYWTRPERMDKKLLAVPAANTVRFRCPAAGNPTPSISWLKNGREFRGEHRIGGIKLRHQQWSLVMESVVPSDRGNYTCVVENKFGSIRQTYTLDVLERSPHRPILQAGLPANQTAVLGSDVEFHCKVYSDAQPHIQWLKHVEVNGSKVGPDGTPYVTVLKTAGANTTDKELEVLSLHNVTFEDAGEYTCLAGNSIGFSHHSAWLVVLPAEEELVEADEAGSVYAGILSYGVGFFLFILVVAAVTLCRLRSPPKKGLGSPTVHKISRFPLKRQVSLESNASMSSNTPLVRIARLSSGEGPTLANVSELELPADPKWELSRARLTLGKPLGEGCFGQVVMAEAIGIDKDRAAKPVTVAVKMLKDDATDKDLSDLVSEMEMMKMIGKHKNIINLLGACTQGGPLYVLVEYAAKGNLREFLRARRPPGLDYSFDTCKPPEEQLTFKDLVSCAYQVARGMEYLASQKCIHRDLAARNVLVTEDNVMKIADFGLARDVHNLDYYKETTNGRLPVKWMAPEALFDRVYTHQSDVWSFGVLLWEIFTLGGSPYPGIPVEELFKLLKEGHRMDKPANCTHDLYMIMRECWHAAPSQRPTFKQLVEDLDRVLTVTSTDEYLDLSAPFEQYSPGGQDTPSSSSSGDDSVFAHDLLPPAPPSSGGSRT
panel of more than 300 wild-type and mutant kinases (313 kinase panel) (Homo sapiens, UniProt P10721, V560G), sequence (P10721 26-976 V560G): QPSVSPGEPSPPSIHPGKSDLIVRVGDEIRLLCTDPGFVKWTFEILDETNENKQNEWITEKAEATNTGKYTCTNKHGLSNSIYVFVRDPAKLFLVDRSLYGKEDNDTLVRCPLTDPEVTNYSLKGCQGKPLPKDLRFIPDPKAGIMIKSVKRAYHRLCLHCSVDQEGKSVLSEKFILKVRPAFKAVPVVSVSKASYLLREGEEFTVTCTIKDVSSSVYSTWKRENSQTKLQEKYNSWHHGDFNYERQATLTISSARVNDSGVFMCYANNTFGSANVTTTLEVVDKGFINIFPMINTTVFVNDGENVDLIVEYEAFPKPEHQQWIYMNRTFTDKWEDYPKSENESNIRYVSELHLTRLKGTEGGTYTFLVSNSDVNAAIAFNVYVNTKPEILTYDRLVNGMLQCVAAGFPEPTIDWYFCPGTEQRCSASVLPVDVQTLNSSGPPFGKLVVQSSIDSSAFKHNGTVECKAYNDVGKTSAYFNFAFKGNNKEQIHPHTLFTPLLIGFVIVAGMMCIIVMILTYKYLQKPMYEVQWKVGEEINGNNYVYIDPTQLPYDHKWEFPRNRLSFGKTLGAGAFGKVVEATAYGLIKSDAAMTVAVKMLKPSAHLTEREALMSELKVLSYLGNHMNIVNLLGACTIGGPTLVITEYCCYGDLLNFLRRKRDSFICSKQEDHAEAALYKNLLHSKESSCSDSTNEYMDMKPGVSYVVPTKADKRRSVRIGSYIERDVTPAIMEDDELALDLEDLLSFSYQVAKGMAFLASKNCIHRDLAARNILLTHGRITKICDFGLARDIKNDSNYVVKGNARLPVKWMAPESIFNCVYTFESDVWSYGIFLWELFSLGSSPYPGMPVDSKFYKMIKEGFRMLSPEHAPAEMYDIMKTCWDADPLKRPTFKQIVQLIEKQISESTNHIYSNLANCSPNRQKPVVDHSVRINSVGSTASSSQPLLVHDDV

Compound | %-inhibition of IGF1R ([1]; kinase IGF1R, compound at 1 μM) | %-inhibition of KIT(V560G) [2, 8] | %-inhibition of SGK3 ([3]; kinase SGK3, 1 μM) | %-inhibition of ZAP70 ([4]; kinase ZAP70, compound at 1 μM) | %-inhibition of ITK ([5]; kinase ITK, compound at 1 μM) | %-inhibition of FGFR3(K650E) [6, 9] | %-inhibition of DYRK1A [7, 10] | %-inhibition of IGF1R [1] | %-inhibition of KIT(V560G) ([2]; 1 µM) | %-inhibition of SGK3 ([3]; 1 µM) | %-inhibition of ITK ([5]; 1 µM) | %-inhibition of FGFR3(K650E) ([6]; 1 µM) | %-inhibition of DYRK1A [7] | %-inhibition of ZAP70 ([4]; 1 µM)
COc1cc(Nc2c(C#N)cnc3cc(OCCCN4CCN(C)CC4)c(OC)cc23)c(Cl)cc1Cl [bosutinib] | 15% | 7% | -7% | 76% | 13% |  |  |  |  |  |  |  |  | 
COc1cc2nccc(Oc3ccc(NC(=O)C4(C(=O)Nc5ccc(F)cc5)CC4)cc3)c2cc1OC [cabozantinib] | 11% | 96% | -1.1% | 0.856% | 16% | 26% | -5% |  |  |  |  |  |  | 
C[C@@H](Oc1cc(-c2cnn(C3CCNCC3)c2)cnc1N)c1c(Cl)ccc(F)c1Cl [crizotinib] |  | 0.851% | -3% | 21% | 63% | 52% | -13% |  |  |  |  |  |  | 
CC(C)(C)c1nc(-c2cccc(NS(=O)(=O)c3c(F)cccc3F)c2F)c(-c2ccnc(N)n2)s1 [dabrafenib] |  |  | 0.0854% | 3.47% | 49% | 5% | 16% |  |  |  |  |  |  | 
Cc1nc(Nc2ncc(C(=O)Nc3c(C)cccc3Cl)s2)cc(N2CCN(CCO)CC2)n1 [dasatinib] |  |  | 1.18% |  |  |  |  |  |  |  |  |  |  | 
C#Cc1cccc(Nc2ncnc3cc(OCCOC)c(OCCOC)cc23)c1 [erlotinib] |  |  |  |  |  |  |  | 7% | 17% | 8% | 6.51% | 80% | 20% | 
CO[C@H]1C[C@@H]2CC[C@@H](C)[C@@](O)(O2)C(=O)C(=O)N2CCCC[C@H]2C(=O)O[C@H]([C@H](C)C[C@@H]2CC[C@@H](OCCO)[C@H](OC)C2)CC(=O)[C@H](C)/C=C(\C)[C@@H](O)[C@@H](OC)C(=O)[C@H](C)C[C@H](C)/C=C/C=C/C=C/1C [everolimus] | -3.24% | -6% | -6.4% | -2% | -3.61% | -4.55% | -11% |  |  |  |  |  |  | 
O=S(=O)(c1cccc2cnccc12)N1CCCNCC1 [fasudil] | -13% | 0.322% | 7% | -2% | -9% | -0.641% | 4.23% |  |  |  |  |  |  | 
CS(=O)(=O)CCNCc1ccc(-c2ccc3ncnc(Nc4ccc(OCc5cccc(F)c5)c(Cl)c4)c3c2)o1 [lapatinib] | 3.73% |  |  | 6% | -1.89% | 0.415% |  |  | 2.33% | 4.58% |  |  | 3.25% | 
Cc1cn(-c2cc(NC(=O)c3ccc(C)c(Nc4nccc(-c5cccnc5)n4)c3)cc(C(F)(F)F)c2)cn1 [nilotinib] | -11% |  | 15% |  | -0.451% | -37% |  |  |  |  |  |  | -6.52% | 2.52%
Cc1ccc(Nc2nccc(N(C)c3ccc4c(C)n(C)nc4c3)n2)cc1S(N)(=O)=O [pazopanib] |  |  | -3.17% | 39% | 28% |  |  |  |  |  |  |  |  | 
Cc1ccc(C(=O)Nc2ccc(CN3CCN(C)CC3)c(C(F)(F)F)c2)cc1C#Cc1cnc2cccnn12 [ponatinib] | 17% |  | -1.1% | 5% | 86% | 101% |  |  |  |  |  |  |  | 
CNC(=O)c1cc(Oc2ccc(NC(=O)Nc3ccc(Cl)c(C(F)(F)F)c3)c(F)c2)ccn1 [regorafenib] | -1.72% | 99% | -8% | -0.475% | 2.43% | 99% | -15% |  |  |  |  |  |  | 
N#CC[C@H](C1CCCC1)n1cc(-c2ncnc3[nH]ccc23)cn1 [ruxolitinib] | 1.31% | -7% | -5% | 2.76% | 30% | 16% | -5% |  |  |  |  |  |  | 
CCN(CC)CCNC(=O)c1c(C)[nH]c(/C=C2\C(=O)Nc3ccc(F)cc32)c1C [sunitinib] |  |  |  |  |  | 96% |  |  |  |  |  |  |  | 
CO[C@H]1C[C@@H]2CC[C@@H](C)[C@@](O)(O2)C(=O)C(=O)N2CCCC[C@H]2C(=O)O[C@H]([C@H](C)C[C@@H]2CC[C@@H](OC(=O)C(C)(CO)CO)[C@H](OC)C2)CC(=O)[C@H](C)/C=C(\C)[C@@H](O)[C@@H](OC)C(=O)[C@H](C)C[C@H](C)/C=C/C=C/C=C/1C [temsirolimus] | -4.62% | -5% | -4% | -2.76% | -1.7% | -2.55% | -3% |  |  |  |  |  |  | 
CC(=O)Nc1cccc(-n2c(=O)n(C3CC3)c(=O)c3c(Nc4ccc(I)cc4F)n(C)c(=O)c(C)c32)c1 [trametinib] | -10% | 1% | 0.769% | -3% | -7.56% | -1.07% | -1.23% |  |  |  |  |  |  | 
COc1cc2c(Nc3ccc(Br)cc3F)ncnc2cc1OCC1CCN(C)CC1 [vandetanib] | -1.72% |  | -8% | 4.47% | 20% |  | -11% |  |  |  |  |  |  | 
CCCS(=O)(=O)Nc1ccc(F)c(C(=O)c2c[nH]c3ncc(-c4ccc(Cl)cc4)cc23)c1F [vemurafenib] | 10% | 32% | -2.38% | 6% | 3% | 6.55% | -18% |  |  |  |  |  |  | 
